What all share (assay): Kinase panel profiling at 1 µmol/L (MSA or IMAP), percentage inhibition
Holding throughout (assay type): biochemical

Test [1] addresses T1, panel of 255 wild-type kinases (Homo sapiens, UniProt O15264).
T1 sequence (O15264 1-365): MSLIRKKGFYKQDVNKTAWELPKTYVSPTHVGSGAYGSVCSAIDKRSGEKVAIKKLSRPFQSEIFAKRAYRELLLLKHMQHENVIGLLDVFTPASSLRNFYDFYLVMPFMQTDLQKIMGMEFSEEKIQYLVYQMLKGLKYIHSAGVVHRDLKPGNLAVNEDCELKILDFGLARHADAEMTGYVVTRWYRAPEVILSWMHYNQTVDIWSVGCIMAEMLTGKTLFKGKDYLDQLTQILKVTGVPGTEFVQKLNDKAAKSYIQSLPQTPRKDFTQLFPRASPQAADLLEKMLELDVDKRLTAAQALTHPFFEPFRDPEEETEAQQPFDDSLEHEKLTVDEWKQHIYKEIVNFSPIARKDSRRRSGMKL
The following applies: read-out: %-inhibition, p38δ.

Test [2] deals with panel of 255 wild-type kinases (Homo sapiens, UniProt P06213). Particulars: read-out: %-inhibition at 1 µmol/L, INSR.
Test [3] has as its target panel of 255 wild-type kinases (Homo sapiens, UniProt P11802). Particulars: read-out: %-inhibition CDK4/CycD3.
Test [4] concerns the target panel of 255 wild-type kinases (Homo sapiens, UniProt P35916). The following applies: read-out: %-inhibition at 1 µmol/L, FLT4.
Test [5] deals with panel of 255 wild-type kinases (Homo sapiens, UniProt P49841). Particulars: kinase GSK3β; 1 µmol/L single concentration.
The target of test [6] is panel of 255 wild-type kinases (Homo sapiens, UniProt Q14680). Particulars: read-out: %-inhibition, MELK.
The target in test [7] is T2, panel of 255 wild-type kinases (Homo sapiens, UniProt Q15139).
T2 sequence (Q15139 1-912): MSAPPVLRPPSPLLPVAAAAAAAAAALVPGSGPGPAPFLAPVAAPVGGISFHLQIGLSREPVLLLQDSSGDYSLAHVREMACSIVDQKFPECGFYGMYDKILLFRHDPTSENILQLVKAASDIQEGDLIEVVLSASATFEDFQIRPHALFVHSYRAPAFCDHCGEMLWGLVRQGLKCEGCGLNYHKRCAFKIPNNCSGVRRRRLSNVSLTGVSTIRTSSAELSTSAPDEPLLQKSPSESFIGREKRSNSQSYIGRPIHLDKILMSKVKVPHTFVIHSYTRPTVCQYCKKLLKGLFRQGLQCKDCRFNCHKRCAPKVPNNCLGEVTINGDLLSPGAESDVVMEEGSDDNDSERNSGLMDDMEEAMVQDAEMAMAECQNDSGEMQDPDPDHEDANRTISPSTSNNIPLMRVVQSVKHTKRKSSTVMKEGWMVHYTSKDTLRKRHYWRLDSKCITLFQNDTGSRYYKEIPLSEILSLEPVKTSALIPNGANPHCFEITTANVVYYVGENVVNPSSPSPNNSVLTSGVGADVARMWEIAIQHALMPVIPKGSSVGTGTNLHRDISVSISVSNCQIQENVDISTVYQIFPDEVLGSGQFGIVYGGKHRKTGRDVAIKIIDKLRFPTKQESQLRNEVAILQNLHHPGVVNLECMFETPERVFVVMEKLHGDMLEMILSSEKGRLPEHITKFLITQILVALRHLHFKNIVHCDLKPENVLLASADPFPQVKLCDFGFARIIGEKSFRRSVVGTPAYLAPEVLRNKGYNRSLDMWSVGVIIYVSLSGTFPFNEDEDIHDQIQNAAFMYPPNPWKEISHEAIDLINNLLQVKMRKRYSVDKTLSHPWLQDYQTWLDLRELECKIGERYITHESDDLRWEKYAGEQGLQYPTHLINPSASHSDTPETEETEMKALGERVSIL
The following applies: read-out: %-inhibition at 1 µmol/L, PKD1.

Test [8] has as its target panel of 255 wild-type kinases (Homo sapiens, UniProt Q15418). Particulars: read-out: %-inhibition at 1 µmol/L, RSK1.
Test [9] addresses panel of 255 wild-type kinases (Homo sapiens, UniProt Q16288). The following applies: read-out: %-inhibition at 1 µmol/L, TRKC.
The target in test [10] is panel of 255 wild-type kinases (Homo sapiens, UniProt Q7KZI7). Particulars: read-out: %-inhibition, MARK2.
In test [11] the target is T3, panel of 255 wild-type kinases (Homo sapiens, UniProt Q96PF2).
T3 sequence (Q96PF2 1-358): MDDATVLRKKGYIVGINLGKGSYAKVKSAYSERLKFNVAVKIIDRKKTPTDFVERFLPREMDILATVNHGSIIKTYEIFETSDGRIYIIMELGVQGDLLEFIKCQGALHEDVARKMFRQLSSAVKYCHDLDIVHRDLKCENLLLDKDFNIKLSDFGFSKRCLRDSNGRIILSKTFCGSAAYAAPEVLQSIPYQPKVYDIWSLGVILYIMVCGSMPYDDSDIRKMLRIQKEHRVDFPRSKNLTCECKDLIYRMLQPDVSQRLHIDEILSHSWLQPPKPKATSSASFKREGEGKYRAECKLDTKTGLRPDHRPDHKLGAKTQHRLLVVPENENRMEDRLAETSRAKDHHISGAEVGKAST
The following applies: read-out: %-inhibition at 1 µmol/L, TSSK2.

In test [12] the target is panel of 255 wild-type kinases (Homo sapiens, UniProt Q9P1W9). The following applies: read-out: %-inhibition at 1 µmol/L, PIM2.
[13] abbreviates: p38δ, 1 µmol/L single concentration.
[14] abbreviates: kinase INSR, 1 µmol/L single concentration.
[15] abbreviates: CDK4/CycD3 kinase assay, 1 µmol/L single concentration.
[16] abbreviates: kinase FLT4, 1 µmol/L single concentration.
Setting [17] is: MELK, 1 µmol/L single concentration.
[18] abbreviates: kinase PKD1, 1 µmol/L single concentration.
Setting [19] is: kinase RSK1, 1 µmol/L single concentration.
Where [20] appears, read: kinase TRKC, 1 µmol/L single concentration.
[21] abbreviates: MARK2, 1 µmol/L single concentration.
[22] abbreviates: kinase TSSK2, 1 µmol/L single concentration.
[23] abbreviates: kinase PIM2, 1 µmol/L single concentration.

Like-named read-outs stand apart in the source and are kept apart here.

Turning to `Cc1nc(NC(=O)N2CCC[C@H]2C(N)=O)sc1-c1ccnc(C(C)(C)C(F)(F)F)c1` [alpelisib], the inhibition at 1 µM was -4.21% in [1] (setting [13]); -2.57% in test [2] (setting [14]); -10% in [3] (setting [15]); 5% in test [4] (setting [16]); -4% in [5]; 0.22% in test [6] (setting [17]). Moreover, the inhibition at 1 µM was -2% in test [7] (setting [18]); -0.527% in test [8] (setting [19]); 2.52% in test [9] (setting [20]); -0.36% in [10] (setting [21]); -6% in [11] (setting [22]); -6.4% in test [12] (setting [23]).
For `Cn1cc(-c2cc3c(N4CCN(c5ncc([C@@](C)(N)c6ccc(F)cc6)cn5)CC4)ncnn3c2)cn1` [avapritinib], the inhibition at 1 µM in [1] (setting [13]) was 0.654%; in [2] (setting [14]), 4.71%; in [3] (setting [15]), 9%; in test [4] (setting [16]), 88%; in [5], -5.32%; in [6] (setting [17]), 9%. The inhibition at 1 µM is 6.4% in [7] (setting [18]); -7% in test [8] (setting [19]); 57% in [9] (setting [20]); -12% in test [10] (setting [21]); 1.35% in [11] (setting [22]); -2.22% in test [12] (setting [23]).
For `Cn1cnc2c(F)c(Nc3ccc(Br)cc3F)c(C(=O)NOCCO)cc21` [binimetinib], the inhibition at 1 µM in test [1] (setting [13]) is 3.49%; in test [2] (setting [14]), 6%; in [3] (setting [15]) it was 3.25%; in test [4] (setting [16]) it was 3.37%; in test [5] it was -1.84%; in [6] (setting [17]), -1.8%. The inhibition at 1 µM in test [7] (setting [18]) is -1.69%; in test [8] (setting [19]), -5.55%; in test [9] (setting [20]), -0.843%; in test [10] (setting [21]), -6%; in [11] (setting [22]), -5%; in test [12] (setting [23]), -6.4%.
On to `CNC(=O)c1ccc(-c2cnc3ncc(Cc4ccc5ncccc5c4)n3n2)cc1F` [capmatinib], for which the inhibition at 1 µM was -4% in test [1]; 4.5% in [2]; -3.55% in test [3]; 10% in test [4]; -4% in test [6]; -5% in test [7]. Moreover, the inhibition at 1 µM was 1.52% in [8]; 19% in test [9]; -8% in [10]; -3.31% in [11]; -4.65% in test [12].
For `COc1cc2ncnc(Nc3ccc(F)c(Cl)c3)c2cc1NC(=O)/C=C/CN1CCCCC1` [dacomitinib], the inhibition at 1 µM in [1] (setting [13]) was 0.0743%; in test [2] (setting [14]) it was 1.81%; in [3] (setting [15]), -0.81%; in [4] (setting [16]), 34%; in test [5], 11%; in test [6] (setting [17]) it was 15%. The inhibition at 1 µM in test [7] (setting [18]) was 9.49%; in [8] (setting [19]) it was 4.37%; in [9] (setting [20]), -0.0882%; in test [10] (setting [21]), -0.433%; in test [11] (setting [22]), 1.2%; in [12] (setting [23]), -3%.
Regarding `C[C@H](Nc1ncnc2nc[nH]c12)c1cc2cccc(Cl)c2c(=O)n1-c1ccccc1` [duvelisib], the inhibition at 1 µM in [1] (setting [13]) is -3%; in [2] (setting [14]), -0.398%; in [3] (setting [15]), -10%; in test [4] (setting [16]) it was 0.523%; in [5] it was -0.808%; in test [6] (setting [17]), 2.43%. Besides, the inhibition at 1 µM is -3.47% in [7] (setting [18]); -0.755% in test [8] (setting [19]); 2% in test [9] (setting [20]); -2.13% in test [10] (setting [21]); -1.37% in test [11] (setting [22]); -6.49% in test [12] (setting [23]).
As for `COC(=O)N[C@@H](C)CNc1nccc(-c2cn(C(C)C)nc2-c2cc(Cl)cc(NS(C)(=O)=O)c2F)n1` [encorafenib], the inhibition at 1 µM in [1] (setting [13]) was determined as 5%; in test [2] (setting [14]), 9%; in test [3] (setting [15]), 10%; in [4] (setting [16]), 17%; in [5], 92%; in test [6] (setting [17]), 4.48%. Further, the inhibition at 1 µM in [7] (setting [18]) was 0.18%; in test [8] (setting [19]) it was -2%; in [9] (setting [20]), -0.54%; in test [10] (setting [21]) it was 5.68%; in [11] (setting [22]), -2.44%; in [12] (setting [23]) it was -1.43%.
For `CN1CCN(c2ccc(C(=O)Nc3n[nH]c4ccc(Cc5cc(F)cc(F)c5)cc34)c(NC3CCOCC3)c2)CC1` [entrectinib], the inhibition at 1 µM in test [1] (setting [13]) was -3%; in test [2] (setting [14]) it was 94%; in test [3] (setting [15]), -7.43%; in [5], -1.6%; in test [7] (setting [18]) it was 1.46%; in test [9] (setting [20]), 100%. Moreover, the inhibition at 1 µM in test [10] (setting [21]) is 9%; in test [11] (setting [22]), -7%; in test [12] (setting [23]) it was -7.56%.
As for `C[C@H]1Oc2cc(cnc2N)-c2c(nn(C)c2C#N)CN(C)C(=O)c2ccc(F)cc21` [lorlatinib], the inhibition at 1 µM in test [1] (setting [13]) was -3.52%; in test [2] (setting [14]), 64%; in [3] (setting [15]) it was -7%; in [4] (setting [16]), 5%; in test [5], -4.7%; in test [6] (setting [17]), 4%. In addition, the inhibition at 1 µM is -0.468% in test [7] (setting [18]); 2.31% in [8] (setting [19]); 11% in test [10] (setting [21]); 56% in test [11] (setting [22]); -3.36% in test [12] (setting [23]).

For the origin of these results see paper PMC9516332 (Frontiers in Oncology, 2022).
